Assay results from article PMC7515912, “Structural insight into the binding of human galectins to corneal keratan sulfate, its desulfated form and related saccharides” (Scientific Reports, 2020).
Read-outs that look alike come from different tables or passages of the source.

How the values were obtained:
[1] = molecular target: T1, Gal-7 (Homo sapiens, UniProt P47929); assay: 1H-15N HSQC NMR titration of 15N-labeled Gal-7; format: binding
T1 construct: made in house
Procedure: (§1) Uniformly ^15N-labeled Gal-3 (or Gal-7) was dissolved at a concentration of 20 μM in 20 mM potassium phosphate buffer at pH 6.9, made up using a 95% H2O/ 5% D2O mixture. ^1H–^15N HSQC NMR experiments were used to investigate binding of KS or KSDS to Gal-3[39] and Gal-7[90]. NMR experiments were performed at 30 °C on Bruker AVANCE III 700 MHz or 850 MHz spectrometers equipped with cryogenically-cooled z-gradient triple resonance probes. Chemical shift perturbations were monitored, using the sequence-specific ^1H and ^15N resonances assignments for human Gal-3, Gal-3 CRD, and Gal-7. Chemical shifts were internally referenced to DSS (4,4-dimethyl-4-silapentane-1-sulfonic acid). Raw data were converted and processed by using NMRPipe[91] and were analyzed by using NMRview[92].
Chemical shifts, δ, were referenced to 4,4-dimethyl-4-silapentane-1-sulfonic acid, and chemical shift differences (∆δ) were calculated as [(∆^1H)^2 + (0.25∆^15N)^2 ]^1/2. Intensity changes (∆Intensity) were calculated as (1 − Inti/Into), where Into is the initial resonance intensity and Inti is the intensity upon addition of KS or KSDS or another saccharide. Using this equation, a value of 1 means that that resonance is no longer observable, and 0 means the absence of resonance broadening, with a negative value indicating increased resonance intensity. […]

[2] = molecular target: T2, Gal-3 CRD (residues 108–250) (Homo sapiens, UniProt P17931); assay: 1H-15N HSQC NMR titration of 15N-labeled Gal-3 CRD; format: binding
T2 construct: its Gal-3 CRD (residues 108–250); made in house
T2 sequence (P17931 108-250): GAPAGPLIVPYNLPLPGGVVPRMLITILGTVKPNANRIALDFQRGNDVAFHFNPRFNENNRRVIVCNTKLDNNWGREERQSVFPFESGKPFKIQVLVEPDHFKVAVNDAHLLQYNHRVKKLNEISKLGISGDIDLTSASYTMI
Procedure: as §1
(§2) Chemical shifts, δ, were referenced to 4,4-dimethyl-4-silapentane-1-sulfonic acid, and chemical shift differences (∆δ) were calculated as [(∆^1H)^2 + (0.25∆^15N)^2 ]^1/2. Intensity changes (∆Intensity) were calculated as (1 − Inti/Into), where Into is the initial resonance intensity and Inti is the intensity upon addition of KS or KSDS or another saccharide. Using this equation, a value of 1 means that that resonance is no longer observable, and 0 means the absence of resonance broadening, with a negative value indicating increased resonance intensity. In chemical shift or resonance broadening maps, the most perturbed resonances are defined as > 2SD above the average or > 1SD above the average. The 50% bound mark was taken from titration curves at 50% bound.

[3] = molecular target: T3, Gal-3 FL (full-length human Gal-3, residues 1–250) (Homo sapiens, UniProt P17931); assay: 1H-15N HSQC NMR titration of 15N-labeled full-length Gal-3; format: binding
T3 construct: Full-length human Gal-3 (residues 1–250); made in house
T3 sequence (P17931 whole entry, the tested form may be a part): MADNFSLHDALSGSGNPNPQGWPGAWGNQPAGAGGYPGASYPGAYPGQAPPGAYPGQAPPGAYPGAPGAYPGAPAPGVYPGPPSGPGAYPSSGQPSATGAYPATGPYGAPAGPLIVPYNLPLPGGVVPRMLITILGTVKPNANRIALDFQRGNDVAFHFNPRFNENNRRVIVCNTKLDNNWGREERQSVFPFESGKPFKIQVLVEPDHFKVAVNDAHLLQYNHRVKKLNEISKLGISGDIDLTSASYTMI
Procedure: as §1, §2

[4] = molecular target: Gal-3 (full-length and CRD) (Homo sapiens, UniProt P17931); assay: PFG NMR diffusion of KS as a function of Gal-3/KS molar ratio; format: binding
Chain of Gal-3 (full-length and CRD) (P17931 108-250 limits assumed): as the sequence (P17931 108-250) above
Procedure: (§3) For pulsed field gradient (PFG) NMR self-diffusion measurements, a solution was made up with KS (4 μM) in 20 mM potassium phosphate buffer with ^2H2O at pD 6.7 adjusted by addition of NaO^2H or ^2HCl. To this solution, ^15N/^13C-labeled Gal-3 (full-length and CRD) dissolved in the same buffer was added at increasing concentrations as molar ratios of [Gal-3]/[KS]. PFG NMR data were acquired at 30 ◦C on a Bruker AVANCE 700 spectrometer, essentially as previously described. For unrestricted diffusion of molecules in isotropic solutions, the PFG NMR signal amplitude, A, normalized to the signal in the absence of gradient pulses, is related to the diffusion coefficient D by Eq. (1):1 A=exp[-γ^2g^2Δ^2D(Δ-[…])]
(§4) where γ is the gyromagnetic ratio, g is the magnitude of the magnetic field gradient pulse, ∆ is the time between gradient pulses. Here, we set g = 1–75 G/cm, ∆ = 34.2 ms, with a longitudinal eddy-current delay of 100 ms. Each D value was determined from a series of 14 1D PFG NMR spectra (256 scans each) using different g values. To derive D values, the gradient-induced change in amplitude of KS resonances at 3.64 and 3.7 ppm was used. In this spectral region, KS resonance intensity was considerably greater than that from Gal-3. In order to decrease Gal-3 resonance intensity further, ^13CH and ^15NH resonances from labeled Gal-3 were not decoupled.

[5] = PFG NMR self-diffusion of KS alone; format: physicochemical; conditions: KS 4 μM in the absence of Gal-3; 20 mM potassium phosphate in 2H2O, pD 6.7, 30 °C
Procedure: as §3, §4

T1 sequence (P47929 whole entry): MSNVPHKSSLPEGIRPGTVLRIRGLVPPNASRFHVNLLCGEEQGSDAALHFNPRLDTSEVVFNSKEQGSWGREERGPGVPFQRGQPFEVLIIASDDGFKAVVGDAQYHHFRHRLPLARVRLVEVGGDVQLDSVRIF

Compound: CC(=O)N[C@H]1[C@H](O[C@H]2[C@@H](O)[C@@H](CO)O[C@@H](O[C@H]3[C@H](O)[C@@H](O)C(O)O[C@@H]3CO)[C@@H]2O)O[C@H](CO)[C@@H](O)[C@@H]1O[C@@H]1O[C@H](CO)[C@H](O)[C@H](O)[C@H]1O (some centres unmarked) [LNT, lacto-N-tetraose, reference compound]
- Kd ([1]; fast exchange, from average ∆δ vs ligand concentration, Gal-7, pH 6.9, 30 °C, read-out: KD): ~500 µM

Compound: CC(=O)N[C@H]1C(O)O[C@H](CO)[C@@H](O[C@@H]2O[C@H](CO)[C@H](O)[C@H](O)[C@H]2O)[C@@H]1O (some centres unmarked) [LacNAc, N-acetyllactosamine, reference compound]
- Kd ([2]; fast exchange, from chemical shifts vs ligand concentration, Gal-3 CRD 20 μM, pH 6.9, 30 °C, read-out: KD): 380 µM
- Kd ([3]; fast exchange, from chemical shifts vs ligand concentration, Gal-3 FL 20 μM, pH 6.9, 30 °C, read-out: KD): 190 µM

Compound: keratan sulfate [KS]
- Kd ([1]; binding avidity estimated from average ∆δ vs glycosaminoglycan concentration, 20 μM Gal-7, pH 6.9, 30 °C, read-out: 50% Gal-7 loaded with ligand (ligand concentration)): ~4.5 µM
- binding stoichiometry, Gal-3 molecules per KS molecule ([4]; D trend continues to Gal-3/KS molar ratio of ~6 to 8, both Gal-3 FL and CRD): ≤ 8
- decrease of KS D value ([4]; upon addition of one mole equivalent of Gal-3): about 40%
- diffusion coefficient D [5]: 0.92 × 10^–6 cm^2/s^-1
- Kd ([2]; 7 μM × 22 sites, assumes the same stoichiometry as KSDS, Gal-3 CRD, read-out: site-average microscopic KD): 154 µM
- Kd ([2]; apparent affinity/avidity from average ∆δ vs ligand concentration, 20 μM Gal-3 CRD, 20 mM KPhos, pH 6.9, 30 °C, read-out: 50% change in chemical shift / 50% lectin bound (ligand concentration)): ~7 µM
- Kd ([3]; 2 μM × 17 sites, assumes the same stoichiometry as KSDS, Gal-3 FL, read-out: site-average microscopic KD): 34 µM
- Kd ([3]; apparent affinity/avidity from average ∆δ vs ligand concentration, 20 μM Gal-3 FL, 20 mM KPhos, pH 6.9, 30 °C, read-out: 50% change in chemical shift / 50% lectin bound (ligand concentration)): ~2 µM
